Reference: PubChem BioAssay AID1745844 (Carcinogenic Potency Database (CPDB), 2022)
Active and inactive are the calls of the source. The rule behind the calls is not given here.

Tested on: rodent lifetime carcinogenesis bioassay, tumor incidence TD50
Experiment: chronic cancer bioassays in animals – CPDB, compiled studies (AID 1745844)

SMILES: [N-]=[N+]=O
- carcinogen call (mouse, strain Swiss Webster, females, inhaled, site: liver, lesion: one or several types, types not named, dosed 78 weeks, study length 83 weeks): negative (inactive)
- TD50 (mouse, strain Swiss Webster, females, inhaled, site: lung, lesion: adenoma, dosed 78 weeks, study length 83 weeks): 309000 mg/kg/day (inactive)
- carcinogen call (mouse, strain Swiss Webster, females, inhaled, site: several sites, sites named in the paper, lesion: one or several types, types not named, dosed 78 weeks, study length 83 weeks): negative (inactive)
- carcinogen call (mouse, strain Swiss Webster, males, inhaled, site: liver, lesion: one or several types, types not named, dosed 78 weeks, study length 83 weeks): negative (inactive)
- carcinogen call (mouse, strain Swiss Webster, males, inhaled, site: lung, lesion: adenoma, dosed 78 weeks, study length 83 weeks): negative (inactive)
- carcinogen call (mouse, strain Swiss Webster, males, inhaled, site: several sites, sites named in the paper, lesion: one or several types, types not named, dosed 78 weeks, study length 83 weeks): negative (inactive)

SMILES: C=COC(N)=O
- TD50 (mouse, strain C57BL/10J, females, i.p., site: liver, lesion: hemangioma, dosed 35 weeks, study length 59 weeks): 0.147 mg/kg/day
- TD50 (mouse, strain C57BL/10J, females, i.p., site: liver, lesion: hemangiosarcoma, dosed 35 weeks, study length 59 weeks): 0.138 mg/kg/day
- TD50 (mouse, strain C57BL/10J, females, i.p., site: liver, lesion: hepatocellular adenoma, dosed 35 weeks, study length 59 weeks): 4.99 mg/kg/day
- TD50 (mouse, strain C57BL/10J, females, i.p., site: liver, lesion: hepatocellular carcinoma, dosed 35 weeks, study length 59 weeks): 0.503 mg/kg/day
- TD50 (mouse, strain C57BL/10J, males, i.p., site: liver, lesion: hemangioma, dosed 35 weeks, study length 59 weeks): 0.112 mg/kg/day
- TD50 (mouse, strain C57BL/10J, males, i.p., site: liver, lesion: hemangiosarcoma, dosed 35 weeks, study length 59 weeks): 0.118 mg/kg/day
- TD50 (mouse, strain C57BL/10J, males, i.p., site: liver, lesion: hepatocellular adenoma, dosed 35 weeks, study length 59 weeks): 2.69 mg/kg/day
- TD50 (mouse, strain C57BL/10J, males, i.p., site: liver, lesion: hepatocellular carcinoma, dosed 35 weeks, study length 59 weeks): 0.629 mg/kg/day

SMILES: O=c1cc(CO)occ1O
- TD50 (mouse, strain B6C3F1, females, in feed, site: liver, lesion: hepatocellular adenoma, dosed 84 weeks, study length 88 weeks): 20900 mg/kg/day
- TD50 (mouse, strain B6C3F1, females, in feed, site: thyroid gland, lesion: follicular-cell adenoma, dosed 84 weeks, study length 88 weeks): 2610 mg/kg/day
- TD50 (mouse, strain B6C3F1, males, in feed, site: liver, lesion: hepatocellular adenoma, dosed 84 weeks, study length 88 weeks): 19700 mg/kg/day
- TD50 (mouse, strain B6C3F1, males, in feed, site: thyroid gland, lesion: follicular-cell adenoma, dosed 52 weeks, study length 52 weeks): 323 mg/kg/day
- TD50 (mouse, strain B6C3F1, males, in feed, site: thyroid gland, lesion: follicular-cell adenoma, dosed 84 weeks, study length 88 weeks): 927 mg/kg/day

SMILES: Oc1ccccc1
- carcinogen call (mouse, strain B6C3F1, females, in drinking water, site: any site (literature study), lesion: several types, types named in the paper, dosed 103 weeks, study length 104 weeks): negative (inactive)
- TD50 (mouse, strain B6C3F1, females, in drinking water, site: lung, lesion: alveolar/bronchiolar adenoma + alveolar/bronchiolar carcinoma, dosed 103 weeks, study length 104 weeks): 18500 mg/kg/day
- carcinogen call (mouse, strain B6C3F1, males, in drinking water, site: any site (literature study), lesion: several types, types named in the paper, dosed 103 weeks, study length 104 weeks): negative (inactive)
- TD50 (mouse, strain B6C3F1, males, in drinking water, site: liver, lesion: hepatocellular adenoma + hepatocellular carcinoma + neoplastic nodule, dosed 103 weeks, study length 104 weeks): 2450 mg/kg/day
- TD50 (mouse, strain B6C3F1, males, in drinking water, site: lung, lesion: alveolar/bronchiolar adenoma + alveolar/bronchiolar carcinoma, dosed 103 weeks, study length 104 weeks): 8290 mg/kg/day
- carcinogen call (rat, strain Fischer 344, females, in drinking water, site: any site (literature study), lesion: several types, types named in the paper, dosed 103 weeks, study length 104 weeks): negative (inactive)
- TD50 (rat, strain Fischer 344, males, in drinking water, site: all sites, lesion: leukemia + lymphoma, dosed 103 weeks, study length 104 weeks): 133 mg/kg/day
- TD50 (rat, strain Fischer 344, males, in drinking water, site: all sites, lesion: leukemia, dosed 103 weeks, study length 104 weeks): 143 mg/kg/day
- TD50 (rat, strain Fischer 344, males, in drinking water, site: all sites, lesion: monocytic leukemia, dosed 103 weeks, study length 104 weeks): 143 mg/kg/day
- TD50 (rat, strain Fischer 344, males, in drinking water, site: thyroid gland, lesion: c-cell carcinoma, dosed 103 weeks, study length 104 weeks): 420 mg/kg/day (inactive)

SMILES: CN(N=O)c1ccc([N+](=O)[O-])cc1
- carcinogen call (rat, strain Fischer 344, males, in drinking water, site: any site (literature study), lesion: several types, types named in the paper, dosed 50 weeks, study length 114 weeks): negative (inactive)
- TD50 (rat, strain Fischer 344, males, in drinking water, site: liver, lesion: hyperplastic nodule, dosed 50 weeks, study length 114 weeks): 5.87 mg/kg/day (inactive)

SMILES: C[C@]12CCC(=O)C=C1CC[C@@H]1[C@@H]2[C@@H](O)C[C@@]2(C)[C@H]1CC[C@]2(O)C(=O)CO
- carcinogen call (rat, strain Sprague-Dawley, females, by gavage, site: any site (literature study), lesion: malignant tumor, dosed 110 weeks, study length 110 weeks): negative (inactive)
- carcinogen call (rat, strain Sprague-Dawley, males, by gavage, site: any site (literature study), lesion: malignant tumor, dosed 104 weeks, study length 104 weeks): negative (inactive)
